Tests used:
[1] = target: T1, SHP2 (residues 224-528) (Homo sapiens, UniProt Q06124); test: Kinetic characterization of SHP2 inactivation (pNPP cleavage progress curves, kobs, kinact/KI); assay type: biochemical; settings: pH 7, role: inhibitor; substrate pNPP 3 mM, 100 nM SHP2, pH 7.0, 25° C; read-out: kinact/KI (converted)
T1 construct: 4× solution of SHP2 (residues 224-528)
T1 sequence (Q06124 224-528): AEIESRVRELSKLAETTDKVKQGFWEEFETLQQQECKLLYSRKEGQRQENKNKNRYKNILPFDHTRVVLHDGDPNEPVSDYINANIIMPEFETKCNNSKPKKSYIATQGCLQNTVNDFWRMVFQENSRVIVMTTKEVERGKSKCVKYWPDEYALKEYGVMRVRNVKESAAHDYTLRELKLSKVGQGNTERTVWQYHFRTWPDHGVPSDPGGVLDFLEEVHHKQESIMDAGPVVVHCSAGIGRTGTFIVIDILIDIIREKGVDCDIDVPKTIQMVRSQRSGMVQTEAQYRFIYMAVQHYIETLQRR
Description: Covalent inhibitors work by forming a covalent bond with a reactive functional group in the target enzyme. Consequently, the kinetics for enzyme inactivation by a covalent inhibitor is not an equilibrium process as with reversible inhibition. The potency of a reversible inhibitor can be measured by its IC50 value. Unlike reversible inhibitors, where inhibition is only concentration-dependent, covalent inhibitors show both time- and concentration-dependent target inhibition (a covalent bond formation is a time-dependent event). If sufficient time is available, covalent inhibitors can completely neutralize the target, rather than go to equilibrium. As a result, the potency and selectivity of a covalent inhibitor cannot be determined by IC50 values; instead, the rate of inactivation of the target (kinact) and the inhibition constant (KI) were determined. The bimolecular rate constant (kinact/KI), was chosen to rank the potency of covalent inhibitors (Ruddraraju et al., 2017, Molecular Biosystems 13(7), 1257-1279).
PTPs catalyze the dephosphorylation of tyrosine-phosphorylated protein substrates through a conserved mechanism that relies on a catalytic cysteine residue (Zhang, Z.-Y et al., 2003, Prog. Nucleic Acid Research Molecular Biology, 73, 171-220). This provides a mechanistic rationale for the assessment of electrophilic Michael acceptors, such as those synthesized in the present disclosure as potential covalent inhibitors of the SHP2. The enzymatic cleavage of para-nitrophenyl phosphate by SHP2 was measured over time in the presence of 100 μM inhibitor or DMSO, to determine the observed first-order rate constant (kobs). Based on kobs values, compounds were further evaluated in a dose-dependent manner to determine the second-order rate constant (kinact/KI) indicating the overall efficacy of the compounds, which was used to assess the structure-activity relationship (SAR) for the analogs of interest and design additional analogs (see Table 1). […] It has been known that modifications to the electronegativity of substituents proximal to electrophilic centers alter the reactivity of the electrophile.
The efficacy of covalent inhibitors can be broken down into the initial reversible binding of the compounds (KI), and the rate of covalent bond formation and enzyme inactivation (kinact). These two constants can be used individually, or as a ratio to determine the overall efficacy of the inhibitor's efficacy. To investigate the contribution to reversible binding compound (34) was evaluated, which lacks the carbonyl of the Michael acceptor to prevent the formation of a covalent adduct.
Inhibitors were evaluated for their ability to inhibit the reaction catalyzed by SHP2 using para-nitrophenyl phosphate (pNPP) as a substrate at pH 7 and 25° C. A 2× solution of inhibitor was diluted into DMG buffer (50 mM 3,3-dimethylglutarate pH 7.0, 1 mM EDTA, ionic strength adjusted to 150 mM using NaCl) was added to a clear flat-bottom 96-well plate (Corning Costar Assay Plate #9017), and serially diluted 1.5-fold, resulting in 100 μL volumes of varying inhibitor concentrations. To this was added a 4× solution of pNPP (12 mM) in DMG buffer. The reaction was initialized by the addition of a 4× solution of SHP2 (residues 224-528), resulting in a final solution of: inhibitor (100-0 μM), pNPP (3 mM), and SHP2 (100 nM). The plate was then monitored for a change in absorbance ab […] using a CLARIOstar^Plus plate reader (BMG Labetch) over the course of an hour. The resulting progress curves for each inhibitor were imported into Graphpad Prism 9 (GraphPad Software, San Diego, CA (USA)), and a baseline correction analysis was completed for fitting purposes. Each curve was fit to the equation Y=V0×(1−e^−kobs*t)/kobs.^[17.22] The kobs values were then plotted against inhibitor concentrations. If the resulting graph was linear, the kinact/KI value was determined by the slope of that line and the 95% confidence interval (95% CI). […]

[2] = target: T2, SHP2 (Homo sapiens, UniProt Q06124); test: Time-dependent IC50 determination, SHP2 (10 min preincubation, pNPP); assay type: biochemical; settings: 10 mM pNPP, pH 7, 25° C, read-out: 10 Minute IC50
T2 construct: 4× solution of SHP2 (residues 224-528)
T2 sequence (Q06124 224-528): T1 sequence (Q06124 224-528)
Protocol: During active compound characterization, other common PTPs, including SHP1. PTP1B, and LYP, were counter-screened. Compounds were incubated for 10 minutes with the corresponding PTP (4 μM) before being diluted 50-fold into a solution containing excess substrate para-nitrophenyl phosphate (10 mM) to monitor the remaining activity. […] This was not expected, given their high sequence and structural homology. […] While unexpected, the lower sequence homology provides a rationale for the observed selectivity.
Inhibitors were evaluated for their ability to inhibit the reaction catalyzed by SHP2 using para-nitrophenyl phosphate (pNPP) as a substrate at pH 7 and 25° C. The reaction was started in a clear flat-bottom 96-well plate (Corning Costar Assay Plate #9017) by the addition of 25 μL of 4 μM PTP in DMG buffer to 25 μl of 2× inhibitor (final concentrations=2 μM PTP, 100-0 μM inhibitor). Reactions were incubated for 1 or 10 minutes before transferring 4 μL into 196 μL of 10.1 mM pNPP in DMG buffer (final concentration=40 nM PTP, 10 mM pNPP). These wells were then allowed to react for 10, 45, or 3 minutes for SHP1 and SHP2, LYP, PTP1B respectively before quenching with 50 μL of 5 M NaOH. Plates were then read for absorbance at 405 nm using a CLARIOstar^Plus plate reader (BMG Labetch). […]

C=C1C(=O)[C@@]2(C(=O)N3CCN(c4ccc(I)cc4)CC3)CC(=O)C[C@@H]1C2 [Compound 37]
kinact/KI [1]: 396 M⁻¹ s⁻¹ | IC50 [2]: 15.4 µM

— patent US20260327239A1, “COMPOUNDS FOR COVALENT INHIBITION OF SHP2” (Purdue Research Foundation, priority 2023, published 2026)
